In article PMC2533354, “Highly specific inhibition of leukaemia virus membrane fusion by interaction of peptide antagonists with a conserved region of the coiled coil of envelope” (Retrovirology, 2008):
Values after ≈ are worked out from the molar mass of the structure shown. Where a SMILES comes first, the peptide text is derived from it.

How the values were obtained:
BLV envelope = molecular target: T1, BLV envelope (Bovine leukemia virus, UniProt P51519); experiment: Syncytium interference assay, BLV envelope-expressing HeLa effector cells; type: cell-based
T1 construct: A fragment encompassing the entire BLV envelope open reading frame; expressed in transfected cells; host or cells: HeLa (co-transfected with pRSV-Rev)
T1 sequence (P51519 302-515): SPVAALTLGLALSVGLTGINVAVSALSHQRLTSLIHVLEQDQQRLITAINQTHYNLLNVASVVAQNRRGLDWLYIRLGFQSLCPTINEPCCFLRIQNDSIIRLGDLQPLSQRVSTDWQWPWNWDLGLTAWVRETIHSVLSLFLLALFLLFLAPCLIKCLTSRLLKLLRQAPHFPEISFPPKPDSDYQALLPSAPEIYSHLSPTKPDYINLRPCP
Protocol: (§1) Briefly, HeLa cells for use as effector cells were transfected with the envelope expression vector pHTE-1 or with equal amounts of pCMV-BLVenv-RRE and pRSV-Rev using the Genejuice™ transfection reagent (Novagen) in accordance with the manufacturer's instructions. 24 h later, 3 × 10^5 effector cells were added to 7 × 10^5 untransfected HeLa target cells in six-well dishes (Nunc). Where appropriate, the co-culture was incubated in the presence of peptides at the concentrations specified. To assess the ability of the peptides to inhibit fusion induced by virally expressed BLV envelope, 2 × 10^5 BLV-infected FLK cells were used as effectors and added to 8 × 10^5 uninfected HeLa cells. After incubation at 37°C for 16 h, cells were washed twice with PBS and fixed in PBS + 3% paraformaldehyde. Assays were performed in triplicate and the number of syncytia (defined as multinucleated cells with 4 or more nuclei) from 10 low-power fields (LPF) per replicate was scored by light microscopy; some assays were stained using Giemsa. A syncytium formation value of 100% is defined as the number of syncytia formed in the absence of peptide but in the presence of 1.5% DMSO.

[1] = Relative peptide solubility by laser nephelometry; type: physicochemical; settings: filtered PBS with 1.5 % DMSO, maximum solubility in aqueous solution, two-fold serial dilution from DMSO stock, 200 μl, 1 hr at room temperature, laser nephelometry (forward scattered light, NEPHELOstar), duplicate wells, in solution if reading up to 3-fold the DMSO control
Protocol: A two-fold serial dilution of peptide in DMSO was performed, and added in duplicate to 96-well microplates. Filtered PBS was added to give a total volume of 200 μl and a final DMSO concentration of 1.5 % in all wells. The plates were incubated at room temperature for 1 hr and the relative solubility of peptides was established by measuring forward scattered light using a NEPHELOstar laser-based microplate nephelometer (BMG LABTECH). Wells containing PBS and 1.5 % DMSO only were used as blanks. Data analysis was carried out using ActivityBase, and peptides giving readings up to and including 3-fold higher than the average reading for the DMSO control were considered to be in solution at the concentrations specified.

[2] = tested on: virally expressed BLV envelope (BLV-infected FLK cells); settings: chronically BLV infected FLK effector cells + HeLa target cells; result in words (Figure 3C)
Protocol: as §1

[3] = result in words, concentration not given (Figures 3B, 4A, 4C)
[4] = up to 20 μM, result in words (Figure 4D)

SMILES | Inhibition of BLV Env-induced membrane fusion (BLV envelope; [3]) | solubility kinetic at 1 h [1] [µM] | also measured
CC[C@H](C)[C@H](NC(=O)[C@H](CO)NC(C)=O)C(=O)N[C@H](C(=O)N[C@@H](CCCNC(=N)N)C(=O)N[C@@H](CC(C)C)C(=O)NCC(=O)N[C@@H](CC(=O)O)C(=O)N[C@@H](CC(C)C)C(=O)N[C@@H](CCC(N)=O)C(=O)N1CCC[C@H]1C(=O)N[C@@H](CC(C)C)C(=O)N[C@@H](CO)C(=O)N[C@@H](CCC(N)=O)C(=O)N[C@@H](CCCNC(=N)N)C(=O)N[C@H](C(=O)N[C@@H](CO)C(=O)N[C@H](C(=O)N[C@@H](CC(=O)O)C(=O)N[C@@H](Cc1c[nH]c2ccccc12)C(=O)N[C@@H](CCC(N)=O)C(N)=O)[C@@H](C)O)C(C)C)[C@@H](C)CC [P^BLV-ΔN] (Ac-SIIRLGDLQPLSQRVSTDWQ-NH2) | lacked detectable inhibitory activity | > 90 | 
CC[C@H](C)[C@H](NC(=O)[C@H](CO)NC(=O)[C@@H](NC(=O)[C@H](Cc1c[nH]cn1)NC(=O)[C@H](CO)NC(=O)[C@H](CC(N)=O)NC(=O)[C@@H](NC(=O)[C@@H](NC(=O)[C@H](CC(N)=O)NC(=O)[C@H](C)NC(=O)[C@H](Cc1ccccc1)NC(=O)[C@H](CS)NC(=O)[C@H](CS)NC(C)=O)[C@@H](C)CC)[C@@H](C)O)C(C)C)C(=O)N[C@@H](C)C(=O)N[C@@H](CCC(N)=O)C(=O)N[C@@H](CCC(=O)O)C(=O)N[C@@H](CCCNC(=N)N)C(=O)N1CCC[C@H]1C(=O)N1CCC[C@H]1C(=O)N[C@@H](C)C(=O)N[C@@H](CCC(=O)O)C(=O)N[C@@H](CC(N)=O)C(=O)N[C@@H](CCCNC(=N)N)C(=O)N[C@H](C(=O)N[C@@H](C)C(=O)N[C@H](C(=O)NCC(=O)N[C@@H](Cc1c[nH]c2ccccc12)C(=O)NCC(=O)N[C@@H](C)C(N)=O)[C@@H](C)O)C(C)C [P^cr-400 L/A, reference compound] (Ac-CCFANITNSHVSIAQERPPAENRVATGWGA-NH2) | did not interfere | 45 (≈ 146 µg/mL) | 
CC[C@H](C)[C@H](NC(=O)[C@H](CCCNC(=N)N)NC(=O)[C@H](CC(C)C)NC(=O)[C@H](Cc1ccccc1)NC(=O)[C@H](CS)NC(=O)[C@H](CS)NC(C)=O)C(=O)N[C@@H](CCC(N)=O)C(=O)N[C@@H](CC(N)=O)C(=O)N[C@@H](CC(=O)O)C(=O)N[C@@H](CO)C(=O)N[C@H](C(=O)N[C@H](C(=O)N[C@@H](CCCNC(=N)N)C(=O)N[C@@H](CC(C)C)C(=O)NCC(=O)N[C@@H](CC(=O)O)C(=O)N[C@@H](CC(C)C)C(=O)N[C@@H](CCC(N)=O)C(=O)N1CCC[C@H]1C(=O)N[C@@H](CC(C)C)C(N)=O)[C@@H](C)CC)[C@@H](C)CC [P^BLV-ΔC] (Ac-CCFLRIQNDSIIRLGDLQPL-NH2) | lacked detectable inhibitory activity | > 90 | 
CC[C@H](C)[C@H](NC(=O)[C@H](CO)NC(=O)[C@@H](NC(=O)[C@H](Cc1c[nH]cn1)NC(=O)[C@H](CO)NC(=O)[C@H](CC(N)=O)NC(=O)[C@@H](NC(=O)[C@@H](NC(=O)[C@H](CC(N)=O)NC(=O)[C@H](CC(C)C)NC(=O)[C@H](Cc1ccccc1)NC(=O)[C@H](CS)NC(=O)[C@H](CS)NC(C)=O)[C@@H](C)CC)[C@@H](C)O)C(C)C)C(=O)N[C@@H](CC(C)C)C(=O)N[C@@H](CCC(N)=O)C(=O)N[C@@H](CCC(=O)O)C(=O)N[C@@H](CCCNC(=N)N)C(=O)N1CCC[C@H]1C(=O)N1CCC[C@H]1C(=O)N[C@@H](CC(C)C)C(=O)N[C@@H](CCC(=O)O)C(=O)N[C@@H](CC(N)=O)C(=O)N[C@@H](CCCNC(=N)N)C(=O)N[C@H](C(=O)N[C@@H](CC(C)C)C(=O)N[C@H](C(=O)NCC(=O)N[C@@H](Cc1c[nH]c2ccccc12)C(=O)NCC(=O)N[C@@H](CC(C)C)C(N)=O)[C@@H](C)O)C(C)C [P^cr-400, reference compound] (Ac-CCFLNITNSHVSILQERPPLENRVLTGWGL-NH2) |  | > 90 | Inhibition of membrane fusion induced by BLV envelope (BLV envelope; concentrations up to 15 μM and above, result in words): failed to inhibit; Inhibition of membrane fusion induced by virally expressed BLV envelope [2]: did not block
CC[C@H](C)[C@H](NC(=O)[C@H](CCCNC(=N)N)NC(=O)[C@H](CC(C)C)NC(=O)[C@H](Cc1ccccc1)NC(=O)[C@H](CS)NC(=O)[C@H](CS)NC(C)=O)C(=O)N[C@@H](CCC(N)=O)C(=O)N[C@@H](CC(N)=O)C(=O)N[C@@H](CC(=O)O)C(=O)N[C@@H](CO)C(=O)N[C@H](C(=O)N[C@H](C(=O)N[C@@H](CCCNC(=N)N)C(=O)N[C@@H](C)C(=O)NCC(=O)N[C@@H](CC(=O)O)C(=O)N[C@@H](CC(C)C)C(=O)N[C@@H](CCC(N)=O)C(=O)N1CCC[C@H]1C(=O)N[C@@H](C)C(=O)N[C@@H](CO)C(=O)N[C@@H](CCC(N)=O)C(=O)N[C@@H](CCCNC(=N)N)C(=O)N[C@H](C(=O)N[C@@H](CO)C(=O)N[C@H](C(=O)N[C@@H](CC(=O)O)C(=O)N[C@@H](Cc1c[nH]c2ccccc12)C(=O)N[C@@H](CCC(N)=O)C(N)=O)[C@@H](C)O)C(C)C)[C@@H](C)CC)[C@@H](C)CC [P^BLV-L404/410A] (Ac-CCFLRIQNDSIIRAGDLQPASQRVSTDWQ-NH2) |  | > 90 | Inhibition of BLV Env-induced membrane fusion (BLV envelope; [4]): failed to display any fusion-blocking activity
CC[C@H](C)[C@H](NC(=O)[C@H](CCCNC(=N)N)NC(=O)[C@H](C)NC(=O)[C@H](Cc1ccccc1)NC(=O)[C@H](CS)NC(=O)[C@H](CS)NC(C)=O)C(=O)N[C@@H](CCC(N)=O)C(=O)N[C@@H](CC(N)=O)C(=O)N[C@@H](CC(=O)O)C(=O)N[C@@H](CO)C(=O)N[C@H](C(=O)N[C@H](C(=O)N[C@@H](CCCNC(=N)N)C(=O)N[C@@H](C)C(=O)NCC(=O)N[C@@H](CC(=O)O)C(=O)N[C@@H](C)C(=O)N[C@@H](CCC(N)=O)C(=O)N1CCC[C@H]1C(=O)N[C@@H](C)C(=O)N[C@@H](CO)C(=O)N[C@@H](CCC(N)=O)C(=O)N[C@@H](CCCNC(=N)N)C(=O)N[C@H](C(=O)N[C@@H](CO)C(=O)N[C@H](C(=O)N[C@@H](CC(=O)O)C(=O)N[C@@H](Cc1c[nH]c2ccccc12)C(=O)N[C@@H](CCC(N)=O)C(N)=O)[C@@H](C)O)C(C)C)[C@@H](C)CC)[C@@H](C)CC [P^BLV-L/A] (Ac-CCFARIQNDSIIRAGDAQPASQRVSTDWQ-NH2) |  | 45 (≈ 148 µg/mL) | Inhibition of BLV Env-induced membrane fusion (BLV envelope; [4]): did not exhibit any discernible inhibition
CC[C@H](C)[C@H](NC(=O)[C@H](CCCNC(=N)N)NC(=O)[C@H](CC(C)C)NC(C)=O)C(=O)N[C@@H](CCC(N)=O)C(=O)N[C@@H](CC(N)=O)C(=O)N[C@@H](CC(=O)O)C(=O)N[C@@H](CO)C(=O)N[C@H](C(=O)N[C@H](C(=O)N[C@@H](CCCNC(=N)N)C(=O)N[C@@H](CC(C)C)C(=O)NCC(=O)N[C@@H](CC(=O)O)C(=O)N[C@@H](CC(C)C)C(=O)N[C@@H](CCC(N)=O)C(=O)N1CCC[C@H]1C(=O)N[C@@H](CC(C)C)C(=O)N[C@@H](CO)C(=O)N[C@@H](CCC(N)=O)C(=O)N[C@@H](CCCNC(=N)N)C(=O)N[C@H](C(=O)N[C@@H](CO)C(=O)N[C@H](C(=O)N[C@@H](CC(=O)O)C(=O)N[C@@H](Cc1c[nH]c2ccccc12)C(=O)N[C@@H](CCC(N)=O)C(N)=O)[C@@H](C)O)C(C)C)[C@@H](C)CC)[C@@H](C)CC [P^BLV-ΔCCF] (Ac-LRIQNDSIIRLGDLQPLSQRVSTDWQ-NH2) |  | 11.2 (≈ 34.8 µg/mL) | inhibition at 30 µM (BLV envelope; HeLa, read-out: Inhibition of syncytium formation): 40%; Inhibition of BLV Env-induced membrane fusion (BLV envelope; peptide concentrations below 11 μM, where the peptide is soluble, result in words): fails to inhibit membrane fusion
CC[C@H](C)[C@H](NC(=O)[C@H](CC(C)C)NC(=O)[C@H](CO)NC(=O)[C@H](Cc1c[nH]cn1)NC(=O)[C@@H](NC(=O)[C@H](CC(C)C)NC(=O)[C@H](CC(C)C)NC(=O)[C@H](CO)NC(=O)[C@@H](NC(=O)[C@H](Cc1ccc(O)cc1)NC(=O)[C@H](CC(N)=O)NC(=O)[C@H](CC(N)=O)NC(=O)[C@@H](NC(=O)[C@H](CCC(=O)O)NC(=O)[C@H](CCCNC(=N)N)NC(=O)[C@H](CC(=O)O)NC(=O)[C@H](Cc1c[nH]c2ccccc12)NC(=O)[C@H](CCC(=O)O)NC(=O)[C@H](CCSC)NC(=O)[C@H](Cc1c[nH]c2ccccc12)NC(=O)CNC(C)=O)[C@@H](C)CC)[C@@H](C)O)[C@@H](C)CC)C(=O)N[C@@H](CCC(=O)O)C(=O)N[C@@H](CCC(=O)O)C(=O)N[C@@H](CO)C(=O)N[C@@H](CCC(N)=O)C(=O)N[C@@H](CC(N)=O)C(=O)N[C@@H](CCC(N)=O)C(=O)N[C@@H](CCC(N)=O)C(=O)N[C@@H](CCC(=O)O)C(=O)N[C@@H](CCCCN)C(=O)N[C@@H](CC(N)=O)C(=O)N[C@@H](CCC(=O)O)C(=O)N[C@@H](CCC(N)=O)C(=O)N[C@@H](CCC(=O)O)C(=O)N[C@@H](CC(C)C)C(=O)N[C@@H](CC(C)C)C(N)=O [Peptide C34, reference compound] (Ac-GWMEWDREINNYTSLLIHSLIEESQNQQEKNEQELL-NH2) | did not interfere | > 90 | 
